As usually defined, the IC50 is the concentration needed to halve the response being measured.

Positions of bridges follow the written chain, without caps; N, C: chain ends. Non-standard residues stand in square brackets, D forms with d. Residues, ends and D or L forms follow the SMILES beside them. Trp(1-CH2COOH) = N[C@@H](Cc1cn(CC(=O)O)c2ccccc12)C(=O)O; Hyp = O=C(O)[C@@H]1C[C@@H](O)CN1; NMeNle = CCCC[C@H](NC)C(=O)O; Pip = O=C(O)[C@@H]1CCCCN1; NMeA = CN[C@@H](C)C(=O)O; Pra = C#CC[C@H](N)C(=O)O; Dab = NCC[C@H](N)C(=O)O; Dap = NC[C@H](N)C(=O)O

T1 sequence (Q9NZQ7 with tags, fused parts or gaps): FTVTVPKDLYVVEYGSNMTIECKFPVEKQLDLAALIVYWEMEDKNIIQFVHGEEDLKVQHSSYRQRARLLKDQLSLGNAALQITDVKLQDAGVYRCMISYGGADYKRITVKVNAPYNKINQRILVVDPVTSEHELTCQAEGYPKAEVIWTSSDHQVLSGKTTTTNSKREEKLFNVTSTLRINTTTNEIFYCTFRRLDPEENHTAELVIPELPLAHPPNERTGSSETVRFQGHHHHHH

This test addresses T1, PD-L1 (Homo sapiens, UniProt Q9NZQ7).
T1 construct: hPDL1(19-239)-TVMV-His; made in house; host or cells: HEK293T
The test is described as follows: PD-1/PD-L1 Homogenous Time-Resolved Fluorescence (HTRF) binding assay (PD-1-Ig/PD-L1-His). The note with it: inhibition of PD-1-Ig binding to PD-L1-TVMV-His; value given as range class; read-out: HTRF IC50. Summed up: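 HTRF competition in dPBS with 0.1% BSA and 0.05% Tween-20: 20 nM PD-1-Ig added after 15 min compound pre-incubation with 10 nM PD-L1-His, then another 15 min. Signal (665/620 nm) after 30 min with APC anti-His (20 nM) and Eu anti-Ig (1 nM).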
Turning to `C#CC[C@H](NC(=O)[C@@H]1CSCC(=O)N[C@@H](Cc2ccc(O)cc2)C(=O)N(C)[C@@H](C)C(=O)N[C@@H](CC(N)=O)C(=O)N2CCC[C@H]2C(=O)N[C@@H](CN)C(=O)N[C@@H](CC(C)C)C(=O)N2C[C@H](O)C[C@H]2C(=O)N[C@@H](Cc2c[nH]c3ccccc23)C(=O)N[C@@H](CCN)C(=O)N[C@@H](Cc2cn(CC(=O)O)c3ccccc23)C(=O)N(C)[C@@H](CCCC)C(=O)N(C)[C@@H](CCCC)C(=O)N[C@@H](CC(C)C)C(=O)N1)C(=O)O` [INT130AF] ({CH2CO}-Y[NMeA]NP[Dap]L[Hyp]W[Dab][Trp(1-CH2COOH)][NMeNle][NMeNle]LC[Pra]-OH; thioether N-14), the IC50 fell in the range of 0.3 to 9.9 nM.

As for `C#CC[C@H](NC(=O)[C@@H]1CSCC(=O)N[C@@H](Cc2ccc(O)cc2)C(=O)N(C)[C@@H](C)C(=O)N[C@@H](CC(N)=O)C(=O)N2CCC[C@H]2C(=O)N[C@@H](CN)C(=O)N[C@@H](CC(C)C)C(=O)N2C[C@H](O)C[C@H]2C(=O)N[C@@H](Cc2c[nH]c3ccccc23)C(=O)N[C@@H](CCN)C(=O)N[C@@H](Cc2cn(CC(=O)O)c3ccccc23)C(=O)N(C)[C@@H](CCCC)C(=O)N(C)[C@@H](CCCC)C(=O)N[C@@H](CCC(=O)O)C(=O)N1)C(=O)O` [INT130AG] ({CH2CO}-Y[NMeA]NP[Dap]L[Hyp]W[Dab][Trp(1-CH2COOH)][NMeNle][NMeNle]EC[Pra]-OH; thioether N-14), the IC50 lay in the range of 0.3 to 9.9 nM.

On to `C#CC[C@H](NC(=O)[C@@H]1CSCC(=O)N[C@@H](Cc2ccc(O)cc2)C(=O)N(C)[C@@H](C)C(=O)N[C@@H](CC(N)=O)C(=O)N2CCC[C@H]2C(=O)N[C@@H](CN)C(=O)N[C@@H](CC(C)C)C(=O)N2C[C@H](O)C[C@H]2C(=O)N[C@@H](Cc2c[nH]c3ccccc23)C(=O)N[C@@H](CCN)C(=O)N[C@@H](Cc2cn(CC(=O)O)c3ccccc23)C(=O)N(C)[C@@H](CCCC)C(=O)N(C)[C@@H](CCCC)C(=O)N[C@@H](CC(=O)O)C(=O)N1)C(=O)O` [INT130AH] ({CH2CO}-Y[NMeA]NP[Dap]L[Hyp]W[Dab][Trp(1-CH2COOH)][NMeNle][NMeNle]DC[Pra]-OH; thioether N-14), for which the half-inhibitory concentration (IC50) was in the range of 0.3 to 9.9 nM.

Turning to `C#CC[C@H](NC(=O)CNC(=O)[C@@H]1CSCC(=O)N[C@@H](Cc2ccc(O)cc2)C(=O)N2CCCC[C@H]2C(=O)N[C@@H](CC(N)=O)C(=O)N2CCC[C@H]2C(=O)N[C@@H](CN)C(=O)N[C@@H](CC(C)C)C(=O)N2C[C@H](O)C[C@H]2C(=O)N[C@@H](Cc2c[nH]c3ccccc23)C(=O)N[C@@H](CCN)C(=O)N[C@@H](Cc2cn(CC(=O)O)c3ccccc23)C(=O)N(C)[C@@H](CCCC)C(=O)N(C)[C@@H](CCCC)C(=O)N[C@@H](CC(C)C)C(=O)N1)C(=O)O` [INT130AI] ({CH2CO}-Y[Pip]NP[Dap]L[Hyp]W[Dab][Trp(1-CH2COOH)][NMeNle][NMeNle]LCG[Pra]-OH; thioether N-14), the 50% inhibitory concentration (IC50) fell in the range of 0.3 to 9.9 nM.

Turning to `C#CC[C@H](NC(=O)CNC(=O)[C@@H]1CSCC(=O)N[C@@H](Cc2ccc(O)cc2)C(=O)N2CCCC[C@H]2C(=O)N[C@@H](CC(N)=O)C(=O)N2CCC[C@H]2C(=O)N[C@@H](CN)C(=O)N[C@@H](CC(C)C)C(=O)N2C[C@H](O)C[C@H]2C(=O)N[C@@H](Cc2c[nH]c3ccccc23)C(=O)N[C@@H](CCN)C(=O)N[C@@H](Cc2cn(CC(=O)O)c3ccccc23)C(=O)N(C)[C@@H](CCCC)C(=O)N(C)[C@@H](CCCC)C(=O)N[C@@H](CCC(=O)O)C(=O)N1)C(=O)O` [INT130AJ] ({CH2CO}-Y[Pip]NP[Dap]L[Hyp]W[Dab][Trp(1-CH2COOH)][NMeNle][NMeNle]ECG[Pra]-OH; thioether N-14), the IC50 is 0.3 to 9.9 nM.

The record behind these values is US10633419B2, “Immunomodulators” (BRISTOL-MYERS SQUIBB COMPANY, priority 2014, dated 2020).
